One series addresses T1, FLT3 kinase (Homo sapiens, UniProt P36888).
T1 construct: purchased Invitrogen
T1 sequence (P36888 27-993): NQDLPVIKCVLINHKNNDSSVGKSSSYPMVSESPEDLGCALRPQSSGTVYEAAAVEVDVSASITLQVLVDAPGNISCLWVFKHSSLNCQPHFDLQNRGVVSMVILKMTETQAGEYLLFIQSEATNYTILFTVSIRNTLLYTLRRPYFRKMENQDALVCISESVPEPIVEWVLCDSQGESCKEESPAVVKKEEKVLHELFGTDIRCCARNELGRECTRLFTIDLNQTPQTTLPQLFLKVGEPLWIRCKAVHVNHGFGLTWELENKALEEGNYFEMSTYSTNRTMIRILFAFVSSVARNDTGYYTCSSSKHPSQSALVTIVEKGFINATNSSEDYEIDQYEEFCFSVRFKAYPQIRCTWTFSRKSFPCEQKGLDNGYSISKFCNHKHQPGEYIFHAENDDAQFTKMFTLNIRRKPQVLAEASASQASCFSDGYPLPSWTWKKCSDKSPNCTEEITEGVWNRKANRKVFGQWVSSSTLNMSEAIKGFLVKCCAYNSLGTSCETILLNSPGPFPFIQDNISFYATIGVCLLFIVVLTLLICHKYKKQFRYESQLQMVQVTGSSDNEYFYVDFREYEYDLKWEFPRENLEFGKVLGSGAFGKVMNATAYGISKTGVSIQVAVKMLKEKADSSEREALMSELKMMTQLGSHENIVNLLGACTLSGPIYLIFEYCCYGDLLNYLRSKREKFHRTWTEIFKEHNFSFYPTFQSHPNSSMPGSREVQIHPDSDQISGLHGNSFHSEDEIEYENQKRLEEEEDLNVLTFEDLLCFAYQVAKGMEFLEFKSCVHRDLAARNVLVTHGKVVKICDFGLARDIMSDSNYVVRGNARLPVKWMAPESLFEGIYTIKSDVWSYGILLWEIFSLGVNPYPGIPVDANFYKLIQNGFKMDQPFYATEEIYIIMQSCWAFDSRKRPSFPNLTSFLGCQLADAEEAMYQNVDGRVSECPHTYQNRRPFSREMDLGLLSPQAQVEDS
Briefly: Biochemical enzyme inhibition assay (microfluidics, Caliper EZ Reader II), FLT3. As to conditions: for IC50: in vitro kinase assay, 60 min pre-incubation, ATP 190 µM, three independent experiments, read-out: FLT3 IC50 (nM) ± SD; for LE: ligand efficiency for FLT3 inhibition. As for the experimental part: Kinase activity was measured in a microfluidics assay that monitors the separation of a phosphorylated product from substrate[31],[32]. […] After, 1 μL was transferred into a 384-well polypropylene assay plate (Greiner, Frickenhausen, Germany). The FLT3 enzyme (Invitrogen™, Grand Island, USA) was diluted in kinase buffer to a concentration of 2 nM and 5 µL of the enzyme mixture was transferred to the assay plate. The inhibitors/FLT3 enzyme were incubated for 60 minutes with minor shaking. […] For positive control, no inhibitor was added. For negative control, no enzyme was added. For running control, quizartinib was utilized. The plate was run until 10–20% conversion based on the positive control wells. The following separation conditions were utilized: upstream voltage −500V; downstream voltage, −1900V; chip pressure −0.8. Percent inhibition was measured for each well comparing starting peptide to phosphorylated product peaks relative to the baseline. Dose response curves, spanning the IC50 dose, were generated in GraphPad Prisim 6 and fit to an exponential one-phase decay line and IC50 values were obtained from the half-life value of the curve. IC50 values were generated in duplicate and error was calculated from the standard deviation between values.
S10. Biochemical Inhibition Assay:1,2 Kinase activity was measured in a microfluidics assay that monitors the separation of a phosphorylated product from substrate. The assay was run using a 12-sipper chip on a Caliper EZ Reader II (PerkinElmer®, Walthman, USA) with separation […]
Walthman, USA]). In 96-well polypropylene plates (Greiner, Frickenhausen, Germany) […]
After, 1 μL was transferred into a 384-well polypropylene assay plate (Greiner, Frickenhausen, Germany). The FLT3 enzyme (Invitrogen™, Grand Island, USA) was diluted in kinase buffer to a concentration of 2 nM and 5 µL of the enzyme mixture was transferred to the assay plate. The inhibitors/FLT3 enzyme were incubated for 60 minutes with minor shaking. A substrate mix was prepared containing ATP (Ambresco®, Solon, USA) and […]
USA) dissolved in kinase buffer, and 5 µL of the substrate mix was added to the assay plate.
For positive control, no inhibitor was added. For negative control, no enzyme was added. For running control, quizartinib was utilized. The plate was run until 10-20% conversion based on the positive control wells. The following separation conditions were utilized: upstream voltage -500V; downstream voltage, -1900V; chip pressure - 0.8. Percent inhibition was measured for each well comparing starting peptide to phosphorylated product peaks relative to the baseline. Dose response curves, spanning the IC50 dose, were generated in GraphPad Prisim 6 and fit to an exponential one-phase decay line and IC50 values were obtained from the half-life value of the curve. IC50 values were generated in duplicate and error was calculated from the standard deviation between values. […]

“And” between values parts separate entries of the source, which are not always exact repeats. Equal values may be shown once.

The term melting point denotes the temperature of the solid-liquid transition. The term IC50 denotes the midpoint of a concentration-inhibition curve. `CNc1cc(Oc2ccc(CC(=O)Nc3ccc(F)cc3)cc2)ncn1` [13ad, 2-(4-(6-(Methylamino)pyrimidin-4-yloxy)phenyl)-N-(4-fluorophenyl)acetamide] displayed a melting point of 124 to 126 °C. Further, on FLT3 kinase, the IC50 was determined as 12800 ± 834 nM and the LE came to 0.26.

Molecule `O=C(Cc1ccc(Nc2cc(NCCCN3CCCC3)ncn2)cc1)Nc1ccc(OC(F)(F)F)cc1` [13t, 2-(4-(6-(3-(Pyrrolidin-1-yl)propylamino)pyrimidin-4-ylamino)phenyl)-N-(4-(trifluoromethoxy)phenyl)acetamide] returned a melting point of 212 to 214 °C. Also, on FLT3 kinase, the IC50 was 909 ± 95.9 nM and the LE turned out to be 0.22.

The molecule `CC(C)(C)c1cc(NC(=O)Cc2ccc(Nc3cc(NCCCN4CCCC4)ncn3)cc2)no1` [13n, 2-(4-(6-(3-(Pyrrolidin-1-yl)propylamino)pyrimidin-4-ylamino)phenyl)-N-(5-tert-butylisoxazol-3-yl)acetamide] registered a melting point of 154 to 156 °C. Besides, at FLT3 kinase, the IC50 came to 1030 ± 121 nM and the LE stood at 0.23.

Consider `CNc1cc(Nc2ccc(NC(=O)Nc3cc(C(C)(C)C)nn3C)cc2)ncn1` [24b, 1-(4-(6-(Methylamino)pyrimidin-4-ylamino)phenyl)-3-(3-tert-butyl-1-methyl-1H-pyrazol-5-yl)urea], for which the melting point was in the range of 242 to 244 °C. Also, at FLT3 kinase, the IC50 came out at 38.2 ± 1.5 nM and the LE is 0.37.

`CS(=O)(=O)c1ccc(Nc2cc(Oc3ccc(CC(=O)Nc4cccc(F)c4)cc3)ncn2)cc1` [13aa, 2-(4-(6-(4-(Methylsulfonyl)phenylamino)pyrimidin-4-yloxy)phenyl)-N-(3-fluorophenyl)acetamide] came in with a melting point of 228 to 230 °C. For the same molecule, on FLT3 kinase, the IC50 was found to be 7878 ± 29 nM and the LE is given as 0.20.

Consider `CNc1cc(Nc2ccc(CC(=O)Nc3ccc(OC(F)(F)F)cc3)cc2)ncn1` [13z, 2-(4-(6-(Methylamino)pyrimidin-4-ylamino)phenyl)-N-(4-(trifluoromethoxy)phenyl) acetamide], for which the melting point fell in the range of 220 to 222 °C. In addition, on FLT3 kinase, the IC50 came to 7370 ± 333 nM and the LE was 0.23.

`CNc1cc(Oc2ccc(CC(=O)Nc3ccc(C(C)(C)C)cc3)cc2)ncn1` [13x, 2-(4-(6-(Methylamino)pyrimidin-4-yloxy)phenyl)-N-(4-tert-butylphenyl)acetamide] yielded a melting point of 208 to 210 °C. For the same molecule, at FLT3 kinase, the IC50 amounted to 5090 ± 75.5 nM and the LE is given as 0.25.

With `CN1CCN(c2cc(Nc3ccc(CC(=O)Nc4cc(C(C)(C)C)nn4-c4ccc(Br)cc4)cc3)ncn2)CC1` [13j, 2-(4-(6-(4-Methylpiperazin-1-yl)pyrimidin-4-ylamino)phenyl)-N-(3-tert-butyl-1-(4-bromophenyl)-1H-pyrazol-5-yl)acetamide], the melting point was in the range of 110 to 112 °C. Also, on FLT3 kinase, the IC50 came to 6020 ± 122 nM and the LE was found to be 0.18.

Regarding `CC(C)(C)c1cc(NC(=O)Cc2ccc(Oc3cc(Nc4cccc(C(F)(F)F)c4)ncn3)cc2)no1` [13l, 2-(4-(6-(3-(Trifluoromethyl)phenylamino)pyrimidin-4-yloxy)phenyl)-N-(5-tert-butylisoxazol-3-yl)acetamide], the melting point lay within 120 to 122 °C. Besides, on FLT3 kinase, the IC50 was 567 nM and 568 nM; the LE is listed as 0.23.

Consider `Cn1nc(C(C)(C)C)cc1NC(=O)Cc1ccc(Nc2cc(NCCCN3CCCCC3)ncn2)cc1` [13c, 2-(4-(6-(3-(Piperidin-1-yl)propylamino)pyrimidin-4-ylamino)phenyl)-N-(3-tert-butyl-1-methyl-1H-pyrazol-5-yl)acetamide], for which, on FLT3 kinase, the IC50 was 129.3 ± 0.9 nM and the LE was found to be 0.26.

Regarding `CN1CCN(c2cc(Nc3ccc(CC(=O)NC4CC4)cc3)ncn2)CC1` [13ah, 2-(4-(6-(4-Methylpiperazin-1-yl)pyrimidin-4-ylamino)phenyl)-N-cyclopropyl acetamide], on FLT3 kinase, the 50% inhibitory concentration (IC50) worked out at 13560 ± 102 nM and the LE worked out at 0.25.

Take `CS(=O)(=O)c1ccc(Nc2cc(Nc3ccc(CC(=O)Nc4cccc(F)c4)cc3)ncn2)cc1` [13ac, 2-(4-(6-(4-(Methylsulfonyl)phenylamino)pyrimidin-4-ylamino)phenyl)-N-(3-fluorophenyl)acetamide]: on FLT3 kinase, the IC50 was determined as 11710 ± 106 nM and the LE amounted to 0.19.

On to `O=C(Cc1ccc(Nc2cc(NCCCN3CCCCC3)ncn2)cc1)Nc1ccc(OC(F)(F)F)cc1` [13y, 2-(4-(6-(3-(Piperidin-1-yl)propylamino)pyrimidin-4-ylamino)phenyl)-N-(4-(trifluoromethoxy)phenyl)acetamide], for which, on FLT3 kinase, the IC50 is 6460 ± 251 nM and the LE is recorded as 0.19.

`Cn1nc(C(C)(C)C)cc1NC(=O)Cc1ccc(Nc2cccc(Nc3ccc(S(C)(=O)=O)cc3)n2)cc1` [compound 18, 2-(4-(6-(4-(Methylsulfonyl)phenylamino)pyridin-2-ylamino)phenyl)-N-(3-tert-butyl-1-methyl-1H-pyrazol-5-yl)acetamide]: on FLT3 kinase (enzymatic FLT3 IC50 compared with 13a), the “fold less active than 13a on FLT3” value was greater than 100 fold. Moreover, on FLT3 kinase, the IC50 came out at 5720 nM.

Take `O=C(Cc1ccc(Nc2cc(Nc3cccc(C(F)(F)F)c3)ncn2)cc1)NC1CC1` [13af, 2-(4-(6-(3-(Trifluoromethyl)phenylamino)pyrimidin-4-ylamino)phenyl)-N-cyclopropylacetamide]: on FLT3 kinase, the IC50 came out at 8060 ± 274 nM and the LE is given as 0.23.

Consider “N-(4-Fluorobenzyl)-2-(4-(6-(3-(pyrrolidin-1-yl)propylamino)pyrimidin-4-yloxy)phenyl)acetamide [13w]”, for which, at FLT3 kinase, the IC50 was 4560 ± 330 nM and the LE is recorded as 0.21.

In the case of `Cn1nc(C(C)(C)C)cc1NC(=O)Cc1ccc(Oc2cc(Nc3ccc(S(C)(=O)=O)cc3)ncn2)cc1` [13e, 2-(4-(6-(4-(Methylsulfonyl)phenylamino)pyrimidin-4-yloxy)phenyl)-N-(3-tert-butyl-1-methyl-1H-pyrazol-5-yl)acetamide], on FLT3 kinase, the IC50 came out at 268 ± 25 nM and the LE is 0.24.

`Cn1nc(C(C)(C)C)cc1NC(=O)Cc1ccc(Nc2cc(N3CCOCC3)ncn2)cc1` [13i, 2-(4-(6-Morpholinopyrimidin-4-ylamino)phenyl)-N-(3-tert-butyl-1-methyl-1H-pyrazol-5-yl)acetamide]: on FLT3 kinase, the IC50 was 428 ± 99 nM and the LE was found to be 0.27.

As for `O=C(Cc1ccc(Nc2cc(NCCCN3CCCC3)ncn2)cc1)Nc1cccc(C(F)(F)F)c1` [13ab, 2-(4-(6-(3-(Pyrrolidin-1-yl)propylamino)pyrimidin-4-ylamino)phenyl)-N-(3-(trifluoromethyl)phenyl)acetamide], at FLT3 kinase, the IC50 is 9170 ± 236 nM and the LE was 0.19.

Source of the values: article PMC5829162, “Rational Design, Synthesis and Biological Evaluation of Pyrimidine-4,6-diamine derivatives as Type-II inhibitors of FLT3 Selective Against c-KIT” (Scientific Reports, 2018).
